For 25 molecules, IC50 results are on record in patent US8859541B2, “6-alkynylpyridines” (Boehringer Ingelheim International GmbH, priority 2012, dated 2014).

In the test the target is T1, XIAP BIR3 (Homo sapiens, UniProt P98170).
T1 construct: covering amino acids 241 to 356; XIAP BIR3; made in house; host or cells: E. coli
Nature of the test: XIAP BIR3 binding assay (DELFIA), displacement of SMAC peptide. The following applies: GST-fusion BIR3 domain (aa 241 to 356) 10 nM, SMAC peptide 10 nM; activity of the (S)-isomers. On the procedure:
Biological Methods XIAP BIR3 and cIAP1 BIR3 Binding Assays (DELFIA)
Peptide […]-Lys(Biotin), representing the N-terminus of mature human SMAC (SMAC peptide), was used as interaction partner in the protein-peptide interaction assay.
BIR3 domains (10 nM) were incubated with SMAC peptide (10 nM) in Assay Buffer (50 mM Tris, 120 mM NaCl, 0.1% BSA, 1 mM DTT, 0.05% TritonX100) for one hour at room temperature in the presence of inhibitiory compounds. The assay mixture was transferred to a strepatvidin coated plate and incubated for one hour at room temperature to allow binding of the biotinylated peptide and associated BIR3 domains to the plate. After several washing steps Eu labeled anti-GST antibody (e.g. Perkin Elmer DELFIA Eu-N1-antiGST AD0250) was added to detect BIR3 domain-SMAC peptide interactions according to Perkin Elmer's instructions. […] Time resolved Europium fluoresecence was measured in a Wallac Victor using Standard assay settings.
DELFIA assay results were plotted against compound concentrations and Software GraphPad Prizm was used to calculate half maximal inhibitory concentrations (IC50 values).

T1 sequence (P98170 241-356): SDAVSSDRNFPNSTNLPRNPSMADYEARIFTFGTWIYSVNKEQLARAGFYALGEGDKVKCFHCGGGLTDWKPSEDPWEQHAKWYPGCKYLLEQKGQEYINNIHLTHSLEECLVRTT

Usually IC50 stands for the concentration that inhibits the measured activity by half. Lower therefore signals higher potency. `CNC(C)C(=O)Nc1ccc(-c2c(C)cncc2C)c(C#Cc2ccc3ncccc3c2)n1` (stereo not shown) [Example 1, N-[5-(3,5-dimethylpyridin-4-yl)-6-(2-quinolin-6-ylethynyl)pyridin-2-yl]-2-(methylamino)propanamide] yielded an IC50 of 287 nM. `CNC(C)C(=O)Nc1ccc(-c2cncnc2)c(C#Cc2ccc3c(c2)OCCCO3)n1` (stereo not shown) [Example 2, N-(6-[2-(3,4-dihydro-2H-1,5-benzodioxepin-7-yl)ethynyl]-5-pyrimidin-5-ylpyridin-2-yl]-2-(methylamino)propanamide] registered an IC50 of 259 nM. The figure for `CNC(C)C(=O)Nc1ccc(-c2cncc3ccccc23)c(C#Cc2ccc(OC)cc2)n1` (stereo not shown) [Example 3, N-[5-isoquinolin-4-yl-6-[2-(4-methoxyphenyl)ethynyl]-pyridin-2-yl]-2-(methyl-amino)propanamide] is 1150 nM; for `CNC(C)C(=O)Nc1ccc(-c2cncc3ccccc23)c(C#Cc2ccc(F)cc2)n1` (stereo not shown) [Example 4, N-[6-[2-(4-fluorophenyl)-ethynyl]-5-isoquinolin-4-ylpyridin-2-yl]-2-(methyl-amino)propanamide] it is 643 nM; for `CNC(C)C(=O)Nc1ccc(-c2cncc3ccccc23)c(C#Cc2ccc3c(c2)OCC(=O)N3)n1` (stereo not shown) [Example 5, N-[5-isoquinolin-4-yl-6-[2-(3-oxo-4H-1,4-benzoxazin-7-yl)-ethynyl]pyridin-2-yl]-2-(methylamino)propanamide] it is 509 nM.

Take `CNC(C)C(=O)Nc1ccc(-c2cncnc2C)c(C#Cc2ccc(C)c(C)c2)n1` (stereo not shown) [Example 6, N-[6-[2-(3,4-dimethylphenyl)-ethynyl]-5-(4-methylpyrimidin-5-yl)pyridin-2-yl]-2-(methylamino)propan-amide]: the IC50 amounted to 214 nM. The figure for `CNC(C)C(=O)Nc1ccc(-c2cncnc2)c(C#Cc2ccc3[nH]c(C)nc3c2)n1` (stereo not shown) [Example 7, 2-(methylamino)-N-[6-[2-(2-methyl-1H-benzimidazol-5-yl)ethynyl]-5-pyrimidin-5-ylpyridin-2-yl]propanamide] is 460 nM. The figure for `CNC(C)C(=O)Nc1ccc(-c2cncnc2)c(C#Cc2ccc(-c3ccccn3)s2)n1` (stereo not shown) [Example 8, 2-(methylamino)-N-[6-[2-(5-pyridin-2-ylthiophen-2-yl)-ethynyl]-5-pyrimidin-5-ylpyridin-2-yl]propanamide] is 351 nM. The result for `CNC(C)C(=O)Nc1ccc(-c2cncnc2)c(C#Cc2ccc3ccccc3n2)n1` (stereo not shown) [Example 9, 2-(methylamino)-N-[5-pyrimidin-5-yl-6-(2-quinolin-2-ylethynyl)pyridin-2-yl]-propanamide] reads 1010 nM. In turn, `CNC(C)C(=O)Nc1ccc(-c2cncnc2)c(C#Cc2ccc3[nH]cnc3c2)n1` (stereo not shown) [Example 10, N-[6-[2-(1H-benzimidazol-5-yl)ethynyl]-5-pyrimidin-5-ylpyridin-2-yl]-2-(methyl-amino)propanamide] came in with an IC50 of 787 nM. The molecule `CNC(C)C(=O)Nc1ccc(-c2cncnc2)c(C#Cc2ccc3c(c2)C(=O)CCO3)n1` (stereo not shown) [Example 11, 2-(methylamino)-N-[6-[2-(4-oxo-2,3-dihydrochromen-6-yl)ethynyl]-5-pyrimidin-5-ylpyridin-2-yl]propanamide] displayed a half-maximal inhibitory concentration (IC50) of 1210 nM. The result for `CNC(C)C(=O)Nc1ccc(-c2cncnc2)c(C#Cc2ccc(OC)c(C#N)c2)n1` (stereo not shown) [Example 12, N-[6-[2-(3-cyano-4-methoxyphenyl)ethynyl]-5-pyrimidin-5-ylpyridin-2-yl]-2-(methylamino)propanamide] reads 1430 nM; that for `CNC(C)C(=O)Nc1ccc(-c2cncnc2)c(C#Cc2ccc3c(c2)OCCO3)n1` (stereo not shown) [Example 14, N-[6-[2-(2,3-dihydro-1,4-benzodioxin-6-yl)ethynyl]-5-pyrimidin-5-ylpyridin-2-yl]-2-(methylamino)propanamide], 417 nM; that for `CNC(C)C(=O)Nc1ccc(-c2cncnc2)c(C#Cc2ccc3scnc3c2)n1` (stereo not shown) [Example 15, N-[6-[2-(1,3-benzothiazol-5-yl)ethynyl]-5-pyrimidin-5-ylpyridin-2-yl]-2-(methyl-amino)propanamide], 711 nM. The figure for `CNC(C)C(=O)Nc1ccc(-c2cncc3ccccc23)c(C#Cc2ccc3occc3c2)n1` (stereo not shown) [Example 16, N-[6-[2-(1-benzofuran-5-yl)-ethynyl]-5-isoquinolin-4-ylpyridin-2-yl]-2-(methyl-amino)propanamide] is 554 nM. The result for `CNC(C)C(=O)Nc1ccc(-c2cncnc2)c(C#Cc2cc(F)cc(Cl)c2)n1` (stereo not shown) [Example 17, N-[6-[2-(3-chloro-5-fluorophenyl)ethynyl]-5-pyrimidin-5-ylpyridin-2-yl]-2-(methylamino)propanamide] reads 122 nM; that for `CNC(C)C(=O)Nc1ccc(-c2cncnc2)c(C#Cc2ccc3ccncc3c2)n1` (stereo not shown) [Example 18, N-[6-(2-isoquinolin-7-yl-ethynyl)-5-pyrimidin-5-ylpyridin-2-yl]-2-(methyl-amino)propanamide], 745 nM. With `CNC(C)C(=O)Nc1ccc(-c2cncnc2)c(C#Cc2ccc3ncccc3c2)n1` (stereo not shown) [Example 19, 2-(methylamino)-N-[5-pyrimidin-5-yl-6-(2-quinolin-6-ylethynyl)pyridin-2-yl]-propanamide], the IC50 is 867 nM. The result for `CNC(C)C(=O)Nc1ccc(-c2cncnc2)c(C#Cc2ccc3oc4ccccc4c3c2)n1` (stereo not shown) [Example 20, N-[6-(2-dibenzofuran-2-yl-ethynyl)-5-pyrimidin-5-ylpyridin-2-yl]-2-(methyl-amino)propanamide] reads 4280 nM. The result for `CNC(C)C(=O)Nc1ccc(-c2c(C)ccc3c2cnn3C)c(C#Cc2ccc3ncccc3c2)n1` (stereo not shown) [Example 21, N-[5-(1,5-dimethylindazol-4-yl)-6-(2-quinolin-6-ylethynyl)-pyridin-2-yl]-2-(methyl-amino)propanamide] reads 540 nM. In turn, `CNC(C)C(=O)Nc1ccc(-c2cccc3ccncc23)c(C#Cc2ccc3ncccc3c2)n1` (stereo not shown) [Example 22, N-[5-isoquinolin-8-yl-6-(2-quinolin-6-ylethynyl)pyridin-2-yl]-2-(methylamino)propan-amide] came in with an IC50 of 1300 nM.

`CNC(C)C(=O)Nc1ccc(-c2cncnc2)c(C#Cc2ccc3ccccc3c2)n1` (stereo not shown) [Example 23, 2-(methylamino)-N-[6-(2-naphthalen-2-ylethynyl)-5-pyrimidin-5-ylpyridin-2-yl]-propanamide]: the IC50 is 265 nM. The figure for `CNC(C)C(=O)Nc1ccc(-c2c(C)ccc3ncccc23)c(C#Cc2ccc3ncccc3c2)n1` (stereo not shown) [Example 24, 2-(methylamino)-N-[5-(6-methylquinolin-5-yl)-6-(2-quinolin-6-ylethynyl)pyridin-2-yl]propanamide] is 698 nM. In the case of `CNC(C)C(=O)Nc1ccc(-c2cncnc2C)c(C#Cc2ccc3cncnc3c2)n1` (stereo not shown) [Example 25, 2-(methylamino)-N-[5-(4-methylpyrimidin-5-yl)-6-(2-quinazolin-7-ylethynyl)-pyridin-2-yl]propanamide], the IC50 turned out to be 653 nM. The result for `CNC(C)C(=O)Nc1ccc(-c2c(C)nc3ccccn23)c(C#Cc2ccc3c(=O)n(C)ccc3c2)n1` (stereo not shown) [Example 32, 2-(methylamino)-N-[5-(2-methylimidazo[1,2-a]pyridin-3-yl)-6-[2-(2-methyl-1-oxoisoquinolin-6-yl)ethynyl]-pyridin-2-yl]propanamide] reads 228 nM.
